Assay results reported in patent US20050112573A1, “Method of detecting toxic substance” (priority 2001, published 2005).

Test system: yeast genes (level of expressed mRNA)
Assay: DNA chip analysis of expressed mRNA of yeast genes after 2 h culture with a toxic chemical substance
Assay type: cell-based, Saccharomyces cerevisiae S288C
Description: Yeast (Saccharomyces cerevtisiae S288C (α SUC2mal mel gap2 CUP1)) were cultured at 25° C. on YPD medium (yeast extract 1%, polypepton 2%, glucose 2%). One of toxic chemical substances was added to the cell at logarithmic growth phase, and the cell was further cultured for two hours. Cell was cultured without any chemical substance in the same condition, and was used as control. Concentrations of the chemical substances were defined to inhibit the growth of the yeast but not lead to death.
After the completion of cultivation, the culture was centrifuged to collect the cells. To the cells, sodium acetate buffer (50 mM sodium acetate, 10 mM EDTA, 1% SDS) was added, and the mixture was shaken at 65° C. for five minutes, followed by returning to room temperature, and obtaining the supernatant, which procedure was repeated two times. To the supernatant, ½ amount of a solution of phenol/chloroform was added, and the mixture was centrifuged to give a supernatant, which was added with an equal amount of chloroform, and the mixture was centrifuged to give a supernatant. To the supernatant, an equal amount of isopropanol containing 0.3 M sodium acetate was added, and the mixture was allowed to stand at room temperature for 30 minutes, after which the mixture was centrifuged to give a sediment of the whole RNAs. Seventy % ethanol was added to the sediment, and the mixture was again centrifuged to give a sediment, which was then dried and dissolved in water. mRNA was isolated from the whole RNAs as followings. In view of the fact that a poly A chain is attached to the 3′ terminus of mRNA, a polynucleotide having a poly T structure which was immobilized on the surface of latex beads was used to trap the mRNA, and then the mRNA was washed and eluted with spine column (Oligotex-dT30<Super>mRNA Purification Kit, Takara). Reverse transcription of the mRNA was conducted with a reverse transcriptase (Super Script II Reverse Transcriptase; catalogue No. 18064-014, GibcoBRL) using fluorescence-labeled nucleotides to give cDNAs that were introduced with Cy3-dUTP or Cy5-dUTP during the reverse transcription.
The labeled cDNAs were dissolved in TE buffer (10 mM Tris-HCl/1 mM EDTA, pH8.0), and the solution was dropped on the DNA chip containing the whole genes of yeast (DNA Chip Research Inc. Japan) so that the cDNAs were hybridized on the DNA chip at 65° C. for over 12 hours. The fluoresces intensity of the DNA chip was read with a scanner, and the ratio relative to the fluorescence intensity resulting from the absence of chemical substance was estimated as the following, which is shown in Tables 1 to 9: [formula]
In the Tables, “Intensity” indicated in the rightmost column is a value of the level of expressed mRNA of each gene in control cells as divided by the average level of the expressions of the whole genes.

CCCCCCCCCCCCOS(=O)(=O)[O-].[Na+] [(18), sodium lauryl sulfate]
The level of expressed mRNA in the presence of chemical substance/absence: YDR133C (gene YDR133C): 0.9 | The level of expressed mRNA in the presence of chemical substance/absence: YDR140W (gene YDR140W): 1.3 | The level of expressed mRNA in the presence of chemical substance/absence: YDR221W (gene YDR221W): 1.0 | The level of expressed mRNA in the presence of chemical substance/absence: YDR250C (gene YDR250C): 0.9 | The level of expressed mRNA in the presence of chemical substance/absence: YDR271C (gene YDR271C): 0.9 | The level of expressed mRNA in the presence of chemical substance/absence: YDR278C (gene YDR278C): 0.8 | The level of expressed mRNA in the presence of chemical substance/absence: YDR281C (gene YDR281C): 1.2 | The level of expressed mRNA in the presence of chemical substance/absence: YDR316W (gene YDR316W): 0.5 | The level of expressed mRNA in the presence of chemical substance/absence: YDR338C (gene YDR338C): 1.0 | The level of expressed mRNA in the presence of chemical substance/absence: YDR366C (gene YDR366C): 0.9 | level of expressed mRNA in the presence of chemical substance/in its absence (gene YDR380W): 0.8 | level of expressed mRNA in the presence of chemical substance/in its absence (gene YDR410C): 1.0 | The level of expressed mRNA in the presence of chemical substance/absence: YDR421W (gene YDR421W): 0.8 | The level of expressed mRNA in the presence of chemical substance/absence: YDR425W (gene YDR425W): 1.2 | The level of expressed mRNA in the presence of chemical substance/absence: YDR485C (gene YDR485C): 1.0 | level of expressed mRNA in the presence of chemical substance/in its absence (gene YDR487C): 1.9 | level of expressed mRNA in the presence of chemical substance/in its absence (gene YDR502C): 0.9 | The level of expressed mRNA in the presence of chemical substance/absence: YDR504C (gene YDR504C): 1.2 | level of expressed mRNA in the presence of chemical substance/in its absence (gene YEL011W): 2.5 | level of expressed mRNA in the presence of chemical substance/in its absence (gene YEL020C): 1.3 | The level of expressed mRNA in the presence of chemical substance/absence: YEL044W (gene YEL044W): 1.0 | level of expressed mRNA in the presence of chemical substance/in its absence (gene YER026C): 3.2 | level of expressed mRNA in the presence of chemical substance/in its absence (gene YER069W): 0.9 | The level of expressed mRNA in the presence of chemical substance/absence: YER092W (gene YER092W): 1.7 | The level of expressed mRNA in the presence of chemical substance/absence: YER182W (gene YER182W): 1.2 | The level of expressed mRNA in the presence of chemical substance/absence: YFL042C (gene YFL042C): 1.2 | level of expressed mRNA in the presence of chemical substance/in its absence (gene YFR015C): 1.2 | The level of expressed mRNA in the presence of chemical substance/absence: YFR026C (gene YFR026C): 1.1 | The level of expressed mRNA in the presence of chemical substance/absence: YFR056C (gene YFR056C): 0.8 | level of expressed mRNA in the presence of chemical substance/in its absence (gene YGL001C): 2.1 | level of expressed mRNA in the presence of chemical substance/in its absence (gene YGL022W): 0.7 | level of expressed mRNA in the presence of chemical substance/in its absence (gene YGL039W): 1.0 | The level of expressed mRNA in the presence of chemical substance/absence: YGL041C (gene YGL041C): 1.1 | The level of expressed mRNA in the presence of chemical substance/absence: YGL045W (gene YGL045W): 1.2 | The level of expressed mRNA in the presence of chemical substance/absence: YGL057C (gene YGL057C): 1.1 | The level of expressed mRNA in the presence of chemical substance/absence: YGL088W (gene YGL088W): 0.7 | level of expressed mRNA in the presence of chemical substance/in its absence (gene YGL104C): 1.3 | level of expressed mRNA in the presence of chemical substance/in its absence (gene YGL126W): 0.9 | level of expressed mRNA in the presence of chemical substance/in its absence (gene YGL134W): 1.3 | level of expressed mRNA in the presence of chemical substance/in its absence (gene YGL154C): 1.1 | The level of expressed mRNA in the presence of chemical substance/absence: YGL183C (gene YGL183C): 1.0 | level of expressed mRNA in the presence of chemical substance/in its absence (gene YGL209W): 1.5 | The level of expressed mRNA in the presence of chemical substance/absence: YGL223C (gene YGL223C): 1.0 | level of expressed mRNA in the presence of chemical substance/in its absence (gene YGL253W): 0.8 | The level of expressed mRNA in the presence of chemical substance/absence: YGR038W (gene YGR038W): 1.1 | level of expressed mRNA in the presence of chemical substance/in its absence (gene YGR060W): 1.6 | The level of expressed mRNA in the presence of chemical substance/absence: YGR139W (gene YGR139W): 0.8 | The level of expressed mRNA in the presence of chemical substance/absence: YGR156W (gene YGR156W): 0.8 | The level of expressed mRNA in the presence of chemical substance/absence: YGR198W (gene YGR198W): 1.0 | The level of expressed mRNA in the presence of chemical substance/absence: YGR210C (gene YGR210C): 0.7 | The level of expressed mRNA in the presence of chemical substance/absence: YGR211W (gene YGR211W): 0.5 | The level of expressed mRNA in the presence of chemical substance/absence: YGR237C (gene YGR237C): 1.0 | The level of expressed mRNA in the presence of chemical substance/absence: YGR243W (gene YGR243W): 4.4 | The level of expressed mRNA in the presence of chemical substance/absence: YGR250C (gene YGR250C): 2.1 | The level of expressed mRNA in the presence of chemical substance/absence: YGR266W (gene YGR266W): 1.0 | The level of expressed mRNA in the presence of chemical substance/absence: YGR277C (gene YGR277C): 1.1 | level of expressed mRNA in the presence of chemical substance/in its absence (gene YGR282C): 1.5
